Read-outs that look alike come from different tables or passages of the source.
Key:
[1] = Pharmacokinetic profile after single oral, intranasal and intravenous betahistine in beagle dogs, Example 5; format: in vivo; settings: beagle, dog, in vivo
Protocol: In this study, the pharmacokinetic profile of betahistine was evaluated after a single dose administration of betahistine in male and female beagle dogs (age 5-7 months; weight of 5-11 kg, within a range of 3 kg for each sex) for three routes of administration: oral, intranasal, and intravenous.
On Day 1 of the study, betahistine (BH) was delivered orally at a dose of 12 mg/kg, 24 mg/kg, or 48 mg/kg. Each treatment group comprised 8 animals (4 males and 4 females). For pharmacokinetic assessment, plasma samples were collected prior to dosing, and then at 5, 10, 20 and 30 min, 1, 2, 3, 6, 24 hours after dosing.
On Day 8 of the study, the animals that received oral BH at a dose of 12 mg/kg were administered the test betahistine composition intranasally at a dose of 40 mg betahistine dihydrochloride; the animals that received oral BH at a dose of 24 mg/kg were administered the test betahistine composition intranasally at a dose of 80 mg betahistine dihydrochloride; and the animals that received oral BH at a dose of 48 mg/kg were administered the test betahistine composition intranasally at a dose of 120 mg betahistine dihydrochloride. The test betahistine composition was delivered intranasally in a single dose via an Aptar nasal spray pump device at a total dose level of 40, 80 and 120 mg of betahistine dihydrochloride. Plasma samples were collected prior to dosing, and then at 5, 10, 20 and 30 min, 1, 2, 3, 6, 24 hours after dosing.
On Day 15 of the study, the animals that received oral BH at a dose of 12 mg/kg and the test betahistine composition intranasally at a dose of 40 mg betahistine dihydrochloride were administered a bolus intravenous injection of betahistine at a dose of 0.44 mg/kg. Plasma samples were collected prior to dosing, and then at 5, 10, 20 and 30 min, 1, 2, 3, 6, 24 hours after dosing.
Betahistine 13CD3 dihydrochloride and 2-pyridylacetic acid-D4 hydrochloride were used as respective internal standards. The calibration range for betahistine was 0.05-250 ng/mL and for 2-PAA 2.00-3000 ng/mL using a plasma sample volume of 0.50 mL.
For determination of betahistine, the method involved liquid-liquid extraction, for 2-PAA, the method involved protein precipitation. Plasma samples were prepared for betahistine by extraction under basic conditions with an organic solvent, then the organic phase was dried, reconstituted and transferred for LC/MS-MS analysis. […] Sample analysis was performed using reversed phase chromatography.

[2] = cited from earlier work; for Tmax: 2-PAA after oral betahistine
[3] = female, inhaled or intranasal, 6 mg/kg
[4] = female, inhaled or intranasal, 13 mg/kg
[5] = female, inhaled or intranasal, 17.7 mg/kg
[6] = male, inhaled or intranasal, 5 mg/kg
[7] = male, inhaled or intranasal, 9.8 mg/kg
[8] = male, inhaled or intranasal, 15.8 mg/kg

With `O=C(O)Cc1ccccn1` [2-PAA, 2-pyridylacetic acid] the AUC(0-inf) [1, 3] was 19000 ng·h/mL, the “AUC(0-t)/D” value [1, 3] was 3170 ± 812 hr*ng/mL/(mg/kg) and the Cmax [1, 3] was 5570 ng/mL. For the same compound, the Cmax/D [1, 3] was 928 ng/mL/(mg/kg), the Tmax [1, 3] was 0.75 h and the half-life [1, 3] was 2.66 h. The AUC(0-t) ([1]; female, inhaled or intranasal, 6 mg/kg, AUC(0-6)) was 14800 ng·h/mL, the AUC(0-t) ([1]; female, inhaled or intranasal, 6 mg/kg, AUC(0-t)) was 19000 ng·h/mL and the AUC(0-inf) [1, 4] was 25300 ng·h/mL. For the same compound, the “AUC(0-t)/D” value [1, 4] was 1940 ± 838 hr*ng/mL/(mg/kg), the Cmax [1, 4] was 7030 ng/mL and the Cmax/D [1, 4] was 541 ng/mL/(mg/kg). It also gave a Tmax [1, 4] of 1 h, a half-life [1, 4] of 2.97 h and an AUC(0-t) ([1]; female, inhaled or intranasal, 13 mg/kg, AUC(0-6)) of 19300 ng·h/mL. The AUC(0-t) ([1]; female, inhaled or intranasal, 13 mg/kg, AUC(0-t)) was 25200 ng·h/mL, the “AUC(0-6)” value [1, 5] was 10600 ng·h/mL and the AUC(0-inf) [1, 5] was 14100 ng·h/mL. The “AUC(0-t)/D” value [1, 5] was 790 ± 307 hr*ng/mL/(mg/kg), the Cmax [1, 5] was 3810 ng/mL and the Cmax/D [1, 5] was 215 ng/mL/(mg/kg). For the same compound, the T1/2 [1, 5] was 3.46 h, the AUC(0-t) ([1]; female, inhaled or intranasal, 17.7 mg/kg, AUC(0-t)) was 14000 ng·h/mL and the “AUC(0-6)” value ([1]; female, iv, 0.44 mg/kg) was 1540 ± 101 ng·h/mL. The “AUC(0-inf)” value ([1]; female, iv, 0.44 mg/kg) was 1860 ± 188 ng·h/mL, the “AUC(0-t)” value ([1]; female, iv, 0.44 mg/kg) was 1830 ± 209 ng·h/mL and the “AUC(0-t)/D” value ([1]; female, iv, 0.44 mg/kg) was 4160 ± 475 hr*ng/mL/(mg/kg). For the same compound, the Cmax ([1]; female, iv, 0.44 mg/kg) was 722 ± 75.3 ng/mL, the Cmax/D ([1]; female, iv, 0.44 mg/kg) was 1640 ± 171 ng/mL/(mg/kg) and the T1/2 ([1]; female, iv, 0.44 mg/kg) was 2.78 h. For the same compound, the “Tmax (median)” value ([1]; female, iv, 0.44 mg/kg) was 0.18 h, the “AUC(0-6)” value ([1]; female, po, 12 mg/kg) was 41300 ng·h/mL and the “AUC(0-int)” value ([1]; female, po, 12 mg/kg) was 57200 ± 11300 ng·h/mL. The “AUC(0-t)” value ([1]; female, po, 12 mg/kg) was 57200 ± 11300 ng·h/mL, the “AUC(0-t)/D” value ([1]; female, po, 12 mg/kg) was 4760 ± 940 hr*ng/mL/(mg/kg) and the Cmax ([1]; female, po, 12 mg/kg) was 14500 ng/mL. For the same compound, the Cmax/D ([1]; female, po, 12 mg/kg) was 1210 ng/mL/(mg/kg), the T1/2 ([1]; female, po, 12 mg/kg) was 2.12 ± 0.110 h and the “AUC(0-6)” value ([1]; female, po, 24 mg/kg) was 69300 ng·h/mL. The “AUC(0-int)” value ([1]; female, po, 24 mg/kg) was 110000 ± 14300 ng·h/mL, the “AUC(0-t)” value ([1]; female, po, 24 mg/kg) was 110000 ± 14300 ng·h/mL and the “AUC(0-t)/D” value ([1]; female, po, 24 mg/kg) was 4590 ± 594 hr*ng/mL/(mg/kg). For the same compound, the Cmax ([1]; female, po, 24 mg/kg) was 21300 ng/mL, the Cmax/D ([1]; female, po, 24 mg/kg) was 885 ng/mL/(mg/kg) and the T1/2 ([1]; female, po, 24 mg/kg) was 2.14 ± 0.176 h. The “Tmax (median)” value ([1]; female, po, 24 mg/kg) was 2 h, the “AUC(0-6)” value ([1]; female, po, 48 mg/kg) was 144000 ng·h/mL and the “AUC(0-int)” value ([1]; female, po, 48 mg/kg) was 208000 ± 35000 ng·h/mL. The “AUC(0-t)” value ([1]; female, po, 48 mg/kg) was 237000 ± 63500 ng·h/mL, the “AUC(0-t)/D” value ([1]; female, po, 48 mg/kg) was 4930 ± 1320 hr*ng/mL/(mg/kg) and the Cmax ([1]; female, po, 48 mg/kg) was 37500 ng/mL. The Cmax/D ([1]; female, po, 48 mg/kg) was 781 ng/mL/(mg/kg), the T1/2 ([1]; female, po, 48 mg/kg) was 2.24 ± 0.170 h and the “Tmax (median)” value ([1]; female, po, 48 mg/kg) was 2 h. For the same compound, the “AUC(0-6)” value [1, 6] was 9440 ng·h/mL, the “AUC(0-inf)” value [1, 6] was 12200 ng·h/mL and the “AUC(0-t)” value [1, 6] was 12200 ng·h/mL. The “AUC(0-t)/D” value [1, 6] was 2440 ± 2160 hr*ng/mL/(mg/kg), the Cmax [1, 6] was 3480 ng/mL and the Cmax/D [1, 6] was 695 ng/mL/(mg/kg). The T1/2 [1, 6] was 2.96 h, the “Tmax (median)” value [1, 6] was 0.5 h and the AUC(0-inf) [1, 7] was 10400 ng·h/mL. For the same compound, the “AUC(0-t)/D” value [1, 7] was 1060 ± 368 hr*ng/mL/(mg/kg), the Cmax [1, 7] was 3320 ng/mL and the Cmax/D [1, 7] was 339 ng/mL/(mg/kg). For the same compound, the Tmax [1, 7] was 1 h, the half-life [1, 7] was 2.86 h and the AUC(0-t) ([1]; male, inhaled or intranasal, 9.8 mg/kg, AUC(0-6)) was 8450 ng·h/mL. The AUC(0-t) ([1]; male, inhaled or intranasal, 9.8 mg/kg, AUC(0-t)) was 10400 ng·h/mL, the AUC(0-inf) [1, 8] was 12800 ng·h/mL and the “AUC(0-t)/D” value [1, 8] was 806 ± 197 hr*ng/mL/(mg/kg). The Cmax [1, 8] was 3930 ng/mL, the Cmax/D [1, 8] was 249 ng/mL/(mg/kg) and the Tmax [1, 8] was 1 h. It also gave a half-life [1, 8] of 2.87 h, an AUC(0-t) ([1]; male, inhaled or intranasal, 15.8 mg/kg, AUC(0-6)) of 10200 ng·h/mL and an AUC(0-t) ([1]; male, inhaled or intranasal, 15.8 mg/kg, AUC(0-t)) of 12700 ng·h/mL. The “AUC(0-6)” value ([1]; male, iv, 0.44 mg/kg) was 1450 ± 388 ng·h/mL, the “AUC(0-inf)” value ([1]; male, iv, 0.44 mg/kg) was 1760 ± 642 ng·h/mL and the “AUC(0-t)” value ([1]; male, iv, 0.44 mg/kg) was 1740 ± 641 ng·h/mL. For the same compound, the “AUC(0-t)/D” value ([1]; male, iv, 0.44 mg/kg) was 3960 ± 1460 hr*ng/mL/(mg/kg), the Cmax ([1]; male, iv, 0.44 mg/kg) was 736 ± 53.5 ng/mL and the Cmax/D ([1]; male, iv, 0.44 mg/kg) was 1670 ± 121 ng/mL/(mg/kg). For the same compound, the T1/2 ([1]; male, iv, 0.44 mg/kg) was 2.59 h, the “Tmax (median)” value ([1]; male, iv, 0.44 mg/kg) was 0.13 h and the “AUC(0-6)” value ([1]; male, po, 12 mg/kg) was 37300 ng·h/mL. For the same compound, the “AUC(0-int)” value ([1]; male, po, 12 mg/kg) was 50500 ± 21100 ng·h/mL, the “AUC(0-t)” value ([1]; male, po, 12 mg/kg) was 50500 ± 21100 ng·h/mL and the “AUC(0-t)/D” value ([1]; male, po, 12 mg/kg) was 4210 ± 1760 hr*ng/mL/(mg/kg). The Cmax ([1]; male, po, 12 mg/kg) was 12700 ng/mL, the Cmax/D ([1]; male, po, 12 mg/kg) was 1060 ng/mL/(mg/kg) and the T1/2 ([1]; male, po, 12 mg/kg) was 2.21 ± 0.160 h. For the same compound, the “AUC(0-int)” value ([1]; male, po, 24 mg/kg) was 107000 ± 28200 ng·h/mL, the “AUC(0-t)/D” value ([1]; male, po, 24 mg/kg) was 4460 ± 1180 hr*ng/mL/(mg/kg) and the Cmax ([1]; male, po, 24 mg/kg) was 26400 ng/mL. The Cmax/D ([1]; male, po, 24 mg/kg) was 1100 ng/mL/(mg/kg), the T1/2 ([1]; male, po, 24 mg/kg) was 2.04 ± 0.107 h and the Tmax ([1]; male, po, 24 mg/kg) was 1.5 h. The AUC(0-t) ([1]; male, po, 24 mg/kg, AUC(0-6)) was 76400 ng·h/mL, the AUC(0-t) ([1]; male, po, 24 mg/kg, AUC(0-t)) was 107000 ± 28200 ng·h/mL and the “AUC(0-6)” value ([1]; male, po, 48 mg/kg) was 178000 ng·h/mL. For the same compound, the “AUC(0-int)” value ([1]; male, po, 48 mg/kg) was 286000 ± 39300 ng·h/mL, the “AUC(0-t)” value ([1]; male, po, 48 mg/kg) was 286000 ± 39200 ng·h/mL and the “AUC(0-t)/D” value ([1]; male, po, 48 mg/kg) was 5950 ± 817 hr*ng/mL/(mg/kg). For the same compound, the Cmax ([1]; male, po, 48 mg/kg) was 50900 ng/mL, the Cmax/D ([1]; male, po, 48 mg/kg) was 1060 ng/mL/(mg/kg) and the T1/2 ([1]; male, po, 48 mg/kg) was 2.10 ± 0.181 h. The “Tmax (median)” value ([1]; male, po, 48 mg/kg) was 2 h, the peak concentration ([2]; human, 2-PAA after oral betahistine 16 mg, Val et al.) was 522 ng/mL and the Tmax ([2]; human, Chen et al. (2003)) was 1 h. The Tmax ([2]; human, Moorthy et al.) was 1.5 h and the pharmacological activity ([2]; metabolite formed by monoamine oxidase) was “no pharmacological activity”.

— patent publication US20200022963A1, “PHARMACEUTICAL COMPOSITION COMPRISING BETAHISTINE” (Otolanum AG, priority 2017, published 2020)
